Test results as given in US20260109690A1, “HDAC6 INHIBITORS AND METHOD OF THEIR USE” (Baerenkraft Therapeutics, LLC., priority 2024, published 2026).
“And” between values parts separate entries of the source, which are not always exact repeats. Identical values can stand only once.

Assays:
HDAC11 = molecular target: T1, HDAC11 (Homo sapiens, UniProt Q96DB2); experiment: HDAC selectivity panel: HDAC11; format: biochemical
T1 sequence (Q96DB2 1-347): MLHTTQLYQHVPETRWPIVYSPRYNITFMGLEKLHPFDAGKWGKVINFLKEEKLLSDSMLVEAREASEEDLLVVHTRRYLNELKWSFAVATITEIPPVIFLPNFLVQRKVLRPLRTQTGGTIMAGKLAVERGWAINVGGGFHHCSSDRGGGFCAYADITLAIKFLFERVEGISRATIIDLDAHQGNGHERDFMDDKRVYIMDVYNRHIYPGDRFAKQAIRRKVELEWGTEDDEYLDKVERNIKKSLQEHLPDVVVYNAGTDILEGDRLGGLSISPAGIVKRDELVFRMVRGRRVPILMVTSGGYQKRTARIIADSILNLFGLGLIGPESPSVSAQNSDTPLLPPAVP

[1] = tested on: B6SJL.SOD1-G93A transgenic mouse model of amyotrophic lateral sclerosis; experiment: ALS mouse model: neurological scoring; format: in vivo, mice; details: scale of 4-0
Description: At week 9, animals were treated either with vehicle or compound I-8 per orally Q.D. Animals were scored (twice in a week until week 12 and every day thereafter until termination) for motor impairment using Vercelli neurological scoring system at the scale of 4-0. Animals were subjected to different tests for motor coordination and muscle strength assessment once in two weeks.
Animals were scored for motor deficits using the scoring system: • 4—Normal/no sign of motor dysfunction • 3—Presence of hindlimb tremors when suspended by tail • 2—Presence of gait abnormalities • […]—Dragging at least one hindlimb • Absence of right reflex within 30 seconds
Animals were scored twice a week from initiation of treatment until week 12 and everyday thereafter until termination.

HDAC2 = HDAC2 (Homo sapiens, UniProt Q92769); experiment: HDAC selectivity panel: HDAC2; format: biochemical
HDAC6 = molecular target: T2, HDAC6 (Homo sapiens, UniProt Q9UBN7); experiment: NanoBRET assay for target engagement in HEK293 cells transiently transfected with HDAC6; format: cell-based; details: HEK293 cells transfected with HDAC6-NanoLuc Fusion vector, 1 hour
T2 sequence (Q9UBN7 1-1215): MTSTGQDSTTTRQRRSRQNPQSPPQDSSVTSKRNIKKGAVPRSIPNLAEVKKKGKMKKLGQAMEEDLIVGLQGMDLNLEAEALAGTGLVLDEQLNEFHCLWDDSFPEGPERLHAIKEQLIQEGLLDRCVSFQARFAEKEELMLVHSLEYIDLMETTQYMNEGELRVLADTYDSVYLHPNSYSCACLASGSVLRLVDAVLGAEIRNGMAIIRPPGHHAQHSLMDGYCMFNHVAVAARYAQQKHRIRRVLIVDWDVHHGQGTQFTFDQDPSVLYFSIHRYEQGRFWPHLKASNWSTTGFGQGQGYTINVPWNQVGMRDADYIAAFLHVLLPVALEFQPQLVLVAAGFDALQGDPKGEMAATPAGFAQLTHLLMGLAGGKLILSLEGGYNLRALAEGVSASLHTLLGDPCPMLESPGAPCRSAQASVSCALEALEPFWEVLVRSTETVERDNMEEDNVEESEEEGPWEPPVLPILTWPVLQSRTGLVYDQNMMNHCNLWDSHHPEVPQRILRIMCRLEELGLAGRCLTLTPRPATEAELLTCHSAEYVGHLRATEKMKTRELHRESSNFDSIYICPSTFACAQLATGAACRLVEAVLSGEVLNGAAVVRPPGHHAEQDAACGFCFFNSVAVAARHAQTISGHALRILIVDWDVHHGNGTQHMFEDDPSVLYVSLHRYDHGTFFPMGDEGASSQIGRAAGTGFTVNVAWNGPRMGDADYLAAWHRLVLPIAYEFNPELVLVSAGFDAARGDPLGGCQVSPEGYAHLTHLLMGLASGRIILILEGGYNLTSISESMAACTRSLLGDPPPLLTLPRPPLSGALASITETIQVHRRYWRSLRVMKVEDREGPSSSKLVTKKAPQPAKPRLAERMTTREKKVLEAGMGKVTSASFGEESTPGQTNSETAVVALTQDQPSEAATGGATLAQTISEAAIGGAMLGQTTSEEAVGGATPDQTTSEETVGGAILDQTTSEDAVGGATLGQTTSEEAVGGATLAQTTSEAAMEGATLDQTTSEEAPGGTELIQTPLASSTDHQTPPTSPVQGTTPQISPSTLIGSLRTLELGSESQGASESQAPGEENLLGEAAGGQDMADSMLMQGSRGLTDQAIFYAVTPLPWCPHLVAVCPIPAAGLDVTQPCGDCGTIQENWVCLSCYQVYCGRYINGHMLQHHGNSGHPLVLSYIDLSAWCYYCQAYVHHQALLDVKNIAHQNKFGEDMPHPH

Tg2576 AD Disease Mice = experiment: Tg2576 study: open field test; format: in vivo; details: for Open Field Test time spent in Central zone / Open Field Test time spent in Peripheral zone: G3 Tg2576 mice
Description: Mice were weighed and randomized into groups. All the test formulations were freshly administered to respective animals of each group as per body weight. Basal behavior of the animals was recorded and analyzed in open field, Y-Maze, and EPM. Post basal behavior, animals were treated with compound I-16 for the duration of 3 months (i.e., from 6 months until 9 months). During the treatment duration, animals were subjected to different behavioral tests such as OFT, Y-maze, and EPM at 7, 8 and 9 months. At the end of experiments (i.e., at 9 months) animals were subjected to Morris water maze test.
Prior to the treatment initiation at […], animals were subjected to open field test. […] The total distance travelled, and velocity were quantified using an automated video tracking software Ethovision XT for the duration of 10 minutes. A camera, located directly above the centre of the open field, records the session. Locomotor activities were expressed as the total distance travelled and velocity.

[2] = 50 mg/kg then 80 mg/kg from day 36 p.o., 8th months
[3] = 50 mg/kg then 80 mg/kg from day 36 p.o., 9th months
[4] = 6th months (Basal, before treatment)

Chain of HDAC2 (Q92769 whole entry, species assumed, the tested form may be a part): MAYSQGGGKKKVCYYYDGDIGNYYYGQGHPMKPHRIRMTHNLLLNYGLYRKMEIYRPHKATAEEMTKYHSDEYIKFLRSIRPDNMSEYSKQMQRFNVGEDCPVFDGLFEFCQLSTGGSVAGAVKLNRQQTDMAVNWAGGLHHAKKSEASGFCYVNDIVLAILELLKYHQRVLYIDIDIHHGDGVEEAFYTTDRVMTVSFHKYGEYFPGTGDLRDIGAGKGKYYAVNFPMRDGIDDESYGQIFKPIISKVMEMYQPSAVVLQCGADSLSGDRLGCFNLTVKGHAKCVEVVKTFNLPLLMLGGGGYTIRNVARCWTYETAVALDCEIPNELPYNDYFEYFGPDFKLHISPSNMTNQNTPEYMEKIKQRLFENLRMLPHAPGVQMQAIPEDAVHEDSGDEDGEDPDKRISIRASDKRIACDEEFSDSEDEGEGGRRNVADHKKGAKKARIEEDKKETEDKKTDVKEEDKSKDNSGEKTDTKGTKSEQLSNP

Question: With `CC1CN(Cc2ccc(Nc3nccc(-c4ccc(C(=O)NO)cc4)n3)cc2F)CCO1` (racemic) [Compound I-8, 4-(2-((3-fluoro-4-((2-methylmorpholino)methyl)phenyl)amino)pyrimidin-4-yl)-N-hydroxybenzamide] as the compound, how does the IC50 (HDAC11) read?
Answer: The IC50 was 416 nM.

Question: What about the Neurological scoring ([1]; G3 15 mg/kg p.o. QD, Day 1) of the same compound?
Answer: Its Neurological scoring is 4 ± 0.

Question: What about the Neurological scoring ([1]; G3 15 mg/kg p.o. QD, Day 7) of the same compound?
Answer: Its Neurological scoring is 4 ± 0.

Question: And the Neurological scoring ([1]; G3 15 mg/kg p.o. QD, Day 13)?
Answer: The Neurological scoring was 3.89 ± 0.11.

Question: What about the Neurological scoring ([1]; G3 15 mg/kg p.o. QD, Day 21) of the same compound?
Answer: The Neurological scoring was 3.44 ± 0.18.

Question: What about the Neurological scoring ([1]; G3 15 mg/kg p.o. QD, Day 28) of the same compound?
Answer: The Neurological scoring was 3.11 ± 0.26.

Question: And the Neurological scoring ([1]; G3 15 mg/kg p.o. QD, Day 35)?
Answer: Its Neurological scoring is 2.22 ± 0.22.

Question: What about the Neurological scoring ([1]; G3 15 mg/kg p.o. QD, Day 42) of the same compound?
Answer: Its Neurological scoring is 2.11 ± 0.20.

Question: What about the Neurological scoring ([1]; G3 15 mg/kg p.o. QD, Day 49) of the same compound?
Answer: The Neurological scoring was 1.89 ± 0.20.

Question: What about the Neurological scoring ([1]; G3 15 mg/kg p.o. QD, Day 52) of the same compound?
Answer: Its Neurological scoring is 1.56 ± 0.29.

Question: And the Neurological scoring ([1]; G4 30 mg/kg (50 mg/kg from day 34) p.o. QD, Day 1)?
Answer: The Neurological scoring was 4 ± 0.

Question: And the Neurological scoring ([1]; G4 30 mg/kg (50 mg/kg from day 34) p.o. QD, Day 7)?
Answer: Its Neurological scoring is 4 ± 0.

Question: And the Neurological scoring ([1]; G4 30 mg/kg (50 mg/kg from day 34) p.o. QD, Day 13)?
Answer: Its Neurological scoring is 3.75 ± 0.16.

Question: And the Neurological scoring ([1]; G4 30 mg/kg (50 mg/kg from day 34) p.o. QD, Day 21)?
Answer: The Neurological scoring was 3.5 ± 0.19.

Question: What about the Neurological scoring ([1]; G4 30 mg/kg (50 mg/kg from day 34) p.o. QD, Day 28) of the same compound?
Answer: The Neurological scoring was 3 ± 0.27.

Question: What about the Neurological scoring ([1]; G4 30 mg/kg (50 mg/kg from day 34) p.o. QD, Day 35) of the same compound?
Answer: The Neurological scoring was 2.25 ± 0.25.

Question: And the Neurological scoring ([1]; G4 30 mg/kg (50 mg/kg from day 34) p.o. QD, Day 42)?
Answer: Its Neurological scoring is 2.13 ± 0.23.

Question: What about the Neurological scoring ([1]; G4 30 mg/kg (50 mg/kg from day 34) p.o. QD, Day 49) of the same compound?
Answer: Its Neurological scoring is 1.88 ± 0.30.

Question: And the Neurological scoring ([1]; G4 30 mg/kg (50 mg/kg from day 34) p.o. QD, Day 52 (n = 6-8))?
Answer: Its Neurological scoring is 2 ± 0.26.

Question: And the IC50 (HDAC2)?
Answer: The IC50 was 2800 nM.

Question: And the IC50 (HDAC6)?
Answer: The IC50 was 34.7 nM and 35 nM.

Question: `C[C@@H]1CN(Cc2ccc(Nc3nccc(-c4ccc(C(=O)NO)cc4)n3)cc2F)CCO1` [Compound I-16, (R)-4-(2-((3-fluoro-4-((2-methylmorpholino)methyl)phenyl)amino)pyrimidin-4-yl)-N-hydroxybenzamide] was tested. Which “Open Field Test: total distance, velocity, time spent in central and peripheral zone compared to G2 (Tg2576 + vehicle)” value (Tg2576 AD Disease Mice; G3 Tg2576 AD disease mice, 50 mg/kg) did it give?
Answer: Its value is “did not show any significant difference”.

Question: And the “Open Field Test time spent in Central zone” value (Tg2576 AD Disease Mice; 50 mg/kg p.o., 7th months)?
Answer: Its value is 25.12 ± 12.39.

Question: What about the “Open Field Test time spent in Peripheral zone” value (Tg2576 AD Disease Mice; 50 mg/kg p.o., 7th months) of the same compound?
Answer: The value was 574.88 ± 12.39.

Question: What about the “Open Field Test time spent in Central zone” value (Tg2576 AD Disease Mice; [2]) of the same compound?
Answer: The value was 79.09 ± 28.86.

Question: What about the “Open Field Test time spent in Peripheral zone” value (Tg2576 AD Disease Mice; [2]) of the same compound?
Answer: Its value is 520.91 ± 28.86.

Question: What about the “Open Field Test time spent in Central zone” value (Tg2576 AD Disease Mice; [3]) of the same compound?
Answer: The value was 61.69 ± 12.36.

Question: What about the “Open Field Test time spent in Peripheral zone” value (Tg2576 AD Disease Mice; [3]) of the same compound?
Answer: The value was 538.31 ± 12.36.

Question: And the “Open Field Test time spent in Central zone” value (Tg2576 AD Disease Mice; [4])?
Answer: Its value is 57.11 ± 12.95.

Question: What about the “Open Field Test time spent in Peripheral zone” value (Tg2576 AD Disease Mice; [4]) of the same compound?
Answer: Its value is 537.81 ± 12.63.
